Results on 14 molecules are retold here after US20100004240A1, “Indole Compounds” (Glaxo Group Limited, priority 2006, published 2010).

The target in test [1] is T1, human prostanoid EP1 receptor (Homo sapiens, UniProt P34995).
T1 construct: expressed in transfected cells; host or cells: CHO-K1 cells, membrane fraction
T1 sequence (P34995 1-402): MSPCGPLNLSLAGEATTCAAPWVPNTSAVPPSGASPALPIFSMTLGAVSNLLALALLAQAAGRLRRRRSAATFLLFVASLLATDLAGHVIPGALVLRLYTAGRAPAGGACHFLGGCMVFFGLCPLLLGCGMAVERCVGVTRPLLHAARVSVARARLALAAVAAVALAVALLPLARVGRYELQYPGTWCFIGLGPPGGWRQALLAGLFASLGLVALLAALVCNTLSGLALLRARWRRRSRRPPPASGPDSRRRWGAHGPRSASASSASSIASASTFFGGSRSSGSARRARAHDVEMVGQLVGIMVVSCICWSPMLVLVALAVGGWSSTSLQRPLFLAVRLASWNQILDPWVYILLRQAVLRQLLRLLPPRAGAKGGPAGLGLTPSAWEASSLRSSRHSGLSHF
Kind of test: binding assay for the human prostanoid EP1 receptor (competition with [3H]-PGE2). The following applies: [3H]-PGE2 competition, CHO-K1 cell membranes expressing human EP1; averages of a number of experiments; read-out: pIC50 value (converted). The procedure:
Competition assay using [^3H]-PGE2.
Compound potencies are determined using a radioligand binding assay. In this assay compound potencies are determined from their ability to compete with tritiated prostaglandin E2 ([^3H]-PGE2) for binding to the human EP1 receptor.
This assay utilises Chinese hamster ovary-K1 (CHO-K1) cells into which a stable vector containing the EP1 cDNA has previously been transfected. Cells are cultured in suitable flasks containing culture medium such as DMEM:F-12 supplemented with 10% v/v foetal calf serum, 2 mM L-glutamine, 0.25 mg/ml geneticin, 10 μg/ml puromycin and 10 μM indomethacin.
Cells are detached from the culture flasks by incubation in calcium and magnesium free phosphate buffered saline containing 1 mM disodium ethylenediaminetetraacetic acid (Na2EDTA) and 10 μM indomethacin for 5 min. The cells are isolated by centrifugation at 250×g for 5 mins and suspended in an ice cold buffer such as 50 mM Tris, 1 mM Na2EDTA, 140 mM NaCl, 10 μM indomethacin (pH 7.4). The cells are homogenised using a Polytron tissue disrupter (2×10s burst at full setting), centrifuged at 48,000×g for 20 mins and the pellet containing the membrane fraction is washed (optional) three times by suspension and centrifugation at 48,000×g for 20 mins. The final membrane pellet is suspended in an assay buffer such as 10 mM 2-[N-morpholino]ethanesulphonic acid, 1 mM Na2EDTA, 10 mM MgCl2 (pH 6). Aliquots are frozen at −80° C. until required.
For the binding assay the cell membranes, competing compounds and [^3H]-PGE2 (3 nM final assay concentration) are incubated in a final volume of 100 μl for 30 min at 30^O C. All reagents are prepared in assay buffer. Reactions are terminated by rapid vacuum filtration over GF/B filters using a Brandell cell harvester. The filters are washed with ice cold assay buffer, dried and the radioactivity retained on the filters is measured by liquid scintillation counting in Packard TopCount scintillation counter.
The data are analysed using non linear curve fitting techniques to determine the concentration of compound producing 50% inhibition of specific binding (IC50).

In the next test the target is T2, human EP1 receptor (Homo sapiens, UniProt P34995).
T2 construct: expressed in transfected cells; host or cells: CHO-K1 cells
T2 sequence (P34995 1-402): T1 sequence (P34995 1-402)
Description: human EP1 calcium mobilisation assay. The settings on record: for Ki: antagonism of PGE2-induced calcium mobilisation, CHO-K1 cells expressing human EP1, averages of a number of experiments, read-out: functional pKi value (converted). The format is cell-based. The procedure:
Briefly, the antagonist properties of compounds are assessed by their ability to inhibit the mobilisation of intracellular calcium ([Ca^2+]i) in response to activation of EP1 or EP3 receptors by the natural agonist hormone prostaglandin E2 (PGE2). Increasing concentrations of antagonist reduce the amount of calcium that a given concentration of PGE2 can mobilise. The net effect is to displace the PGE2 concentration-effect curve to higher concentrations of PGE2. The amount of calcium produced is assessed using a calcium-sensitive fluorescent dye such as Fluo-4, AM and a suitable instrument such as a Fluorimetric Imaging Plate Reader (FLIPR). Increasing amounts of [Ca^2+]i produced by receptor activation increase the amount of fluorescence produced by the dye and give rise to an increasing signal. The signal may be detected using the FLIPR instrument and the data generated may be analysed with suitable curve-fitting software.
The human EP1 or EP3 calcium mobilisation assay (hereafter referred to as ‘the calcium assay’) utilises Chinese hamster ovary-K1 (CHO-K1) cells into which a stable (pClN; BioTechniques 20 (1996): 102-110) vector containing either EP1 or EP3 cDNA has previously been transfected. Cells are cultured in suitable flasks containing culture medium such as DMEM:F-12 supplemented with 10% v/v foetal calf serum, 2 mM L-glutamine, 0.25 mg/ml geneticin, 100 μM flurbiprofen and 10 μg/ml puromycin.
For assay, cells are harvested using a proprietary reagent that dislodges cells such as Versene. Cells are re-suspended in a suitable quantity of fresh culture media for introduction into a 384-well plate. Following incubation for 24 hours at 37° C. the culture media is replaced with a medium containing Fluo-4 and the detergent pluronic acid, and a further incubation takes place. Concentrations of compounds are then added to the plate in order to construct concentration-effect curves. This may be performed on the FLIPR in order to assess the agonist properties of the compounds. Concentrations of PGE2 are then added to the plate in order to assess the antagonist properties of the compounds.
The data so generated may be analysed by means of a computerised curve-fitting routine. The concentration of compound that elicits a half-maximal inhibition of the calcium mobilisation induced by PGE2 (pIC50) may then be estimated.
In general terms: A change in cytosolic calcium serves as a functional read-out for many receptors and channels.

Counter-ions that a name gives are not always drawn.

In the case of `O=C(NC1CCOCC1)c1coc(-c2cn(CC3CC3)c3ccc(Cl)cc23)n1` [Example 1, 2-[5-Chloro-1-(cyclopropylmethyl)-1H-indol-3-yl]-N-(tetrahydro-2H-pyran-4-yl)-1,3-oxazole-4-carboxamide], the IC50 in test [1] was not above 1000 nM. The “activity in the calcium mobilisation assay” value at human EP1 receptor (human EP1, CHO-K1 cells) was “inactive”. For the molecule `O=C(NN1CCOCC1)c1coc(-c2cn(CC3CC3)c3ccc(Cl)cc23)n1` [Example 2, 2-[5-Chloro-1-(cyclopropylmethyl)-1H-indol-3-yl]-N-4-morpholinyl-1,3-oxazole-4-carboxamide], in test [1], the IC50 is not above 316 nM. In addition, the Ki on human EP1 receptor was not above 1000 nM. For `O=C(NN1CCOCC1)c1coc(-c2cn(C3CCCC3)c3ccc(Cl)cc23)n1` [Example 3, 2-(5-Chloro-1-cyclopentyl-1H-indol-3-yl)-N-4-morpholinyl-1,3-oxazole-4-carboxamide] the same measures were not above 316 nM and not above 316 nM.

As to `O=C(c1coc(-c2cn(C3CCCC3)c3ccc(Cl)cc23)n1)N1CCOCC1` [Example 4, 5-Chloro-1-cyclopentyl-3-[4-(4-morpholinylcarbonyl)-1,3-oxazol-2-yl]-1H-indole], the IC50 in test [1] was not above 1000 nM. In addition, at human EP1 receptor, the Ki was not above 1000 nM. Turning to `CC(C)Cn1cc(-c2nc(C(=O)Nc3cccnc3)co2)c2cc(Cl)ccc21` [Example 5, 2-[5-Chloro-1-(2-methylpropyl)-1H-indol-3-yl]-N-3-pyridinyl-1,3-oxazole-4-carboxamide], the IC50 in test [1] is not above 316 nM. For the same molecule, the Ki at human EP1 receptor was not above 316 nM.

For `CC(C)Cn1cc(-c2nc(C(=O)Nc3ccccn3)co2)c2cc(Cl)ccc21` [Example 6, 2-[5-Chloro-1-(2-methylpropyl)-1H-indol-3-yl]-N-2-pyridinyl-1,3-oxazole-4-carboxamide], at human EP1 receptor, the Ki is not above 316 nM. For the molecule `CC(C)Cn1cc(-c2nc(C(=O)NCC3CCOCC3)co2)c2cc(Cl)ccc21` [Example 7, 2-[5-Chloro-1-(2-methylpropyl)-1H-indol-3-yl]-N-(tetrahydro-2H-pyran-4-ylmethyl)-1,3-oxazole-4-carboxamide], the IC50 in test [1] is not above 316 nM. Besides, the Ki at human EP1 receptor was not above 316 nM. With `CC(C)Cn1cc(-c2nc(C(N)=O)co2)c2cc(Cl)ccc21` [Example 8, 2-[5-Chloro-1-(2-methylpropyl)-1H-indol-3-yl]-1,3-oxazole-4-carboxamide], in test [1], the IC50 was not above 316 nM. Also, at human EP1 receptor, the Ki was not above 316 nM.

Take `CC(C)Cn1cc(-c2nc(-c3nc4ccccc4[nH]3)co2)c2cc(Cl)ccc21` [Example 9, 2-{2-[5-Chloro-1-(2-methylpropyl)-1H-indol-3-yl]-1,3-oxazol-4-yl}-1H-benzimidazole hydrochloride]: in test [1], the IC50 was not above 316 nM. The Ki on human EP1 receptor is not above 316 nM.

On to `CC(C)Cn1cc(-c2nc(-c3nc4ncccc4[nH]3)co2)c2cc(Cl)ccc21` [Example 10, 2-{2-[5-Chloro-1-(2-methylpropyl)-1H-indol-3-yl]-1,3-oxazol-4-yl}-1H-imidazo[4,5-b]pyridine], for which, in test [1], the IC50 was not above 316 nM. Also, the Ki at human EP1 receptor is not above 1000 nM.

As for `CC(C)Cn1cc(-c2nc(-c3nc4cc(CO)ccc4[nH]3)co2)c2cc(Cl)ccc21` [Example 11, (2-{2-[5-Chloro-1-(2-methylpropyl)-1H-indol-3-yl]-1,3-oxazol-4-yl}-1H-benzimidazol-5-yl)methanol], in test [1], the IC50 is not above 316 nM. In addition, at human EP1 receptor, the Ki was not above 316 nM.

Regarding `CC(C)Cn1cc(-c2nc(-c3nc4ccc(CN5CCCCC5)cc4[nH]3)co2)c2cc(Cl)ccc21` [Example 12, 2-{2-[5-Chloro-1-(2-methylpropyl)-1H-indol-3-yl]-1,3-oxazol-4-yl}-5-(1-piperidinylmethyl)-1H-benzimidazole dihydrochloride], the IC50 in test [1] was not above 316 nM. As for `CC(C)Cn1cc(-c2nc(-c3nc4ccc(CN5CCCC5)cc4[nH]3)co2)c2cc(Cl)ccc21` [Example 13, 2-{2-[5-Chloro-1-(2-methylpropyl)-1H-indol-3-yl]-1,3-oxazol-4-yl}-5-(1-pyrrolidinylmethyl)-1H-benzimidazole dihydrochloride], in test [1], the IC50 was not above 316 nM.

Turning to `CCNCc1ccc2nc(-c3coc(-c4cn(CC(C)C)c5ccc(Cl)cc45)n3)[nH]c2c1` [Example 14, [(2-{2-[5-Chloro-1-(2-methylpropyl)-1H-indol-3-yl]-1,3-oxazol-4-yl}-1H-benzimidazol-5-yl)methyl]ethylamine dihydrochloride], the IC50 in test [1] is not above 1000 nM.
